What was measured:
Format in all cases: biochemical
[1] = molecular target: T1, human OGA (Homo sapiens, UniProt O60502); assay: Determination of IC50 values for inhibition of human OGA
T1 construct: made in house
T1 sequence (O60502 1-916): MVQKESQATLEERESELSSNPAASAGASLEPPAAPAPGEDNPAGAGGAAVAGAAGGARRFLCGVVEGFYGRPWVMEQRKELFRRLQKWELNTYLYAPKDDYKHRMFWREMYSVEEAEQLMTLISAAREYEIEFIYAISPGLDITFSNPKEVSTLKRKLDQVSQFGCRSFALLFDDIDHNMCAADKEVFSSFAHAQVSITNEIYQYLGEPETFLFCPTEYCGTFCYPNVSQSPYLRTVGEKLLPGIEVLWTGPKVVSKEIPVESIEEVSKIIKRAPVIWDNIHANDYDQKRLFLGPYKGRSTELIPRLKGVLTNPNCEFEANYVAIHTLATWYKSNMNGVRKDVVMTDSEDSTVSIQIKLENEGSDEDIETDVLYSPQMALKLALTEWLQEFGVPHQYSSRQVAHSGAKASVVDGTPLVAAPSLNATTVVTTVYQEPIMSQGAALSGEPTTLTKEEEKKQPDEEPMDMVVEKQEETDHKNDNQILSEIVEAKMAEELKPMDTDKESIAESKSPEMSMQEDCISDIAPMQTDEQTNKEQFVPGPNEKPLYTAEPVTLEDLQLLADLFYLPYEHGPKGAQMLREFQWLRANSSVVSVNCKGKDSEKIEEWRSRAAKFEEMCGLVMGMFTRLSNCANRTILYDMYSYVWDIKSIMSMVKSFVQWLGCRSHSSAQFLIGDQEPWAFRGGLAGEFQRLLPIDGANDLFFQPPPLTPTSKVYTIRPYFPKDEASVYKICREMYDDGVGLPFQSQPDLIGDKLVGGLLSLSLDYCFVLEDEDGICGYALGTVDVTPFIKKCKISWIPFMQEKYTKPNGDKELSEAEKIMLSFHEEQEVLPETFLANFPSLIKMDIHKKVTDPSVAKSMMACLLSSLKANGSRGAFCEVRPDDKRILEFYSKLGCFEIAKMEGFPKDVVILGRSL
Experimental: Inhibitors identified from the screen described in Example 1 were evaluated for IC50 using a procedure adapted from Biochem. J. 2009, 420, 221-227. IC50 determination was carried out using a range of inhibitor concentrations from 300 μM to 0.003 μM or 100 μM to 0.001 μM. IC50 values were calculated using XLFit 4.

[2] = tested on: human β-hexosaminidase [human placenta] (HexA/B); assay: Determination of IC50 values for inhibition of human β-hexosaminidase; conditions: ratio
Experimental: (§1) Inhibitors identified from the screen described in Example 1 were evaluated for IC50 against human β-hexosaminidase [human placenta, Sigma-Aldrich] using a range of inhibitor concentrations from 300 μM to 0.003 μM or 100 μM to 0.001 μM and the following reaction conditions:
(§2) Reactions were carried out at room temperature for thirty minutes and then quenched through the addition of 150 μl 0.5M Na2CO3. Fluorescence readings were taken at excitation wavelength 360 nm and emission wavelength 450 nm. IC50 values were calculated using XLFit 4. The selectivity ratio for inhibition of human O-GlcNAcase over human β-hexosaminidase is defined here as:
(§3) IC50(human β-hexosaminidase)/IC50(Human OGA)

[3] = molecular target: T2, human β-hexosaminidase [human placenta] (HexA/B); assay: as above; conditions: human β-hexosaminidase, human placenta; room temperature, thirty minutes
T2 construct: other: human β-hexosaminidase, human placenta; room temperature, thirty minutes
Experimental: as §1, §2, §3

IC50 [1] [µM]	Selectivity: IC50(human β-hexosaminidase)/IC50(Human OGA) [2]	IC50 [3] [µM]	Structure (SMILES)
1.68	>178.57	> 300	CC(=O)NC[C@H]1N[C@H](CO)[C@@H](O)[C@H]1O [Compound A033, N-(((2R,3S,4R,5R)-3,4-dihydroxy-5-(hydroxymethyl)pyrrolidin-2-yl)methyl)acetamide]
68	>4.41	> 300	CCCCCCN1[C@H](CO)[C@@H](O)[C@@H](O)[C@@H]1CC(=O)NC [Compound A034, 2-((2S,3S,4R,5R)-1-hexyl-3,4-dihydroxy-5-(hydroxymethyl)pyrrolidin-2-yl)-N-methylacetamide]
0.023	>13215	> 300	CNC(=O)C[C@@H]1[C@H](O)[C@H](O)[C@@H](CO)N1CCCCc1ccccc1 [Compound A020, 2-((2R,3S,4R,5R)-3,4-dihydroxy-5-(hydroxymethyl)-1-(4-phenylbutyl)pyrrolidin-2-yl)-N-methylacetamide]
94.9	>3.16	> 300	CCCCCCN1[C@H](CO)[C@H](O)[C@@H](O)[C@H]1CC(=O)NCCO [Compound A030, 2-((2R,3S,4S,5R)-1-hexyl-3,4-dihydroxy-5-(hydroxymethyl)pyrrolidin-2-yl)-N-(2-hydroxyethyl)acetamide]
0.537	>555	> 300	CCCNC(=O)C[C@H]1N[C@H](CO)[C@@H](O)[C@H]1O [Compound A004, 2-((2R,3S,4R,5R)-3,4-dihydroxy-5-(hydroxymethyl)pyrrolidin-2-yl)-N-propylacetamide]
125	>2.38	> 300	O=C(C[C@@H]1[C@H](O)[C@H](O)[C@@H](CO)N1CCCc1ccccc1)NCCO [Compound A029, 2-((2R,3S,4R,5R)-3,4-dihydroxy-5-(hydroxymethyl)-1-(3-phenylpropyl)pyrrolidin-2-yl)-N-(2-hydroxyethyl)acetamide]
143	0.31	44	CCCCCCN1[C@@H](CO)[C@H](O)[C@H](O)[C@@H]1CC(=O)NC [Compound A024, 2-((2S,3R,4S,5S)-1-hexyl-3,4-dihydroxy-5-(hydroxymethyl)pyrrolidin-2-yl)-N-methylacetamide]
1.59	>188.68	> 300	C=CCNC(=O)C[C@@H]1[C@H](O)[C@H](O)[C@@H](CO)N1CCCCCC [Compound A039, N-allyl-2-((2R,3S,4R,5R)-1-hexyl-3,4-dihydroxy-5-(hydroxymethyl)pyrrolidin-2-yl)acetamide]
10.2	1.37	14	CNC(=O)[C@H]1NC[C@@H](O)[C@@H]1O [Compound A043, (2S,3R,4R)-3,4-dihydroxy-N-methylpyrrolidine-2-carboxamide]
0.228	>1315	> 300	CNC(=O)C[C@@H]1[C@H](O)[C@H](O)[C@@H](CO)N1CCOc1ccccc1 [Compound A037, 2-((2R,3S,4R,5R)-3,4-dihydroxy-5-(hydroxymethyl)-1-(2-phenoxyethyl)pyrrolidin-2-yl)-N-methylacetamide]
1.25	>234	> 300	CCNC(=O)C[C@H]1N[C@H](CO)[C@@H](O)[C@H]1O [Compound A006, 2-((2R,3S,4R,5R)-3,4-dihydroxy-5-(hydroxymethyl)pyrrolidin-2-yl)-N-ethylacetamide]
11.6	>25.95	> 300	CCCCCCN1[C@H](CC(=O)NCC(C)C)[C@H](O)[C@H](O)[C@H]1CO [Compound A027, 2-((2R,3S,4R,5R)-1-hexyl-3,4-dihydroxy-5-(hydroxymethyl)pyrrolidin-2-yl)-N-isobutylacetamide]
0.926	0.44	0.405	CCCCCCN1[C@H](CO)[C@@H](O)[C@H](O)[C@@H]1CC(=O)NC [Compound A047, 2-((2S,3R,4R,5R)-1-hexyl-3,4-dihydroxy-5-(hydroxymethyl)pyrrolidin-2-yl)-N-methylacetamide]
0.144	>2142	> 300	CCCNC(=O)C[C@@H]1[C@H](O)[C@H](O)[C@@H](CO)N1CCCCCCCCCO [Compound A005, 2-((2R,3S,4R,5R)-3,4-dihydroxy-5-(hydroxymethyl)-1-(9-hydroxynonyl)pyrrolidin-2-yl)-N-propylacetamide]
0.014	8142	114	CNC(=O)C[C@@H]1[C@H](O)[C@H](O)[C@@H](CO)N1CCC1CCCCC1 [Compound A041, 2-((2R,3S,4R,5R)-1-(2-cyclohexylethyl)-3,4-dihydroxy-5-(hydroxymethyl)pyrrolidin-2-yl)-N-methylacetamide]
0.007	>42857	> 300	CCNC(=O)C[C@@H]1[C@@H](O)[C@H](O)[C@@H](CO)N1CCCc1ccc(Sc2ccccc2)cc1 [Compound A071, 2-((2R,3R,4R,5R)-3,4-dihydroxy-5-(hydroxymethyl)-1-(3-(4-(phenylthio)phenyl)propyl)pyrrolidin-2-yl)-N-ethylacetamide]
6.98	>42.98	> 300	CCCCCCN1[C@H](CO)[C@@H](O)[C@H](O)[C@@H]1CC(=O)NCC [Compound A054, N-ethyl-2-((2S,3R,4R,5R)-1-hexyl-3,4-dihydroxy-5-(hydroxymethyl)pyrrolidin-2-yl)acetamide]
0.045	3355	151	CNC(=O)C[C@@H]1[C@H](O)[C@H](O)[C@@H](CO)N1CCCCCCO [Compound A040, 2-((2R,3S,4R,5R)-3,4-dihydroxy-1-(6-hydroxyhexyl)-5-(hydroxymethyl)pyrrolidin-2-yl)-N-methylacetamide]
1.3	>230	> 300	CC(=O)NC[C@@H]1[C@H](O)[C@H](O)[C@@H](CO)N1CCCc1ccccc1 [Compound A038, N-(((2R,3S,4R,5R)-3,4-dihydroxy-5-(hydroxymethyl)-1-(3-phenylpropyl)pyrrolidin-2-yl)methyl)acetamide]
75.5	>3.97	> 300	CCCCCCN1[C@H](CC(=O)NCC2CCCCC2)[C@H](O)[C@H](O)[C@H]1CO [Compound A031, N-(cyclohexylmethyl)-2-((2R,3S,4R,5R)-1-hexyl-3,4-dihydroxy-5-(hydroxymethyl)pyrrolidin-2-yl)acetamide]
2.8	0.89	2.5	CNC(=O)[C@H]1N[C@@H](CO)[C@@H](O)[C@@H]1O [Compound A042, (2S,3R,4R,5S)-3,4-dihydroxy-5-(hydroxymethyl)-N-methylpyrrolidine-2-carboxamide]
4.39	>68.34	> 300	CC(C)CNC(=O)C[C@@H]1[C@H](O)[C@H](O)[C@@H](CO)N1CCCc1ccccc1 [Compound A026, 2-((2R,3S,4R,5R)-3,4-dihydroxy-5-(hydroxymethyl)-1-(3-phenylpropyl)pyrrolidin-2-yl)-N-isobutylacetamide]
3.66	>81	> 300	CCCCCCCCCN1[C@H](CC(=O)NC(C)C)[C@H](O)[C@H](O)[C@H]1CO [Compound A014, 2-((2R,3S,4R,5R)-3,4-dihydroxy-5-(hydroxymethyl)-1-nonylpyrrolidin-2-yl)-N-isopropylacetamide]

Source: patent publication US20140073801A1, “PYRROLIDINE DERIVATIVES AS SELECTIVE GLYCOSIDASE INHIBITORS AND USES THEREOF” (Summit Corporation Plc, priority 2011, published 2014)
